Test results published in US9695155B2, “Herbicidal substituted pyrimidinyloxy benzene compounds” (E. I. DU PONT DE NEMOURS AND COMPANY, priority 2013, dated 2017).

Tests used:
spring wheat [1] = test: Test D postemergence; format: in vivo, Triticum aestivum
In short: (§1)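 Visual rating vs untreated controls, 0 = no effect, 100 = complete control, taken 7–21 d after treatment. Pre: silt loam soil. Post: potting medium, plants 2–18 cm, 1–4 leaf. Formulation: non-phytotoxic solvent mix + surfactant.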

winter wheat [2] = test: Test D postemergence; format: in vivo, Triticum aestivum
In short: as §1

Italian ryegrass = test: Test D preemergence; format: in vivo, Lolium multiflorum
In short: as §1

kochia = test: Test D preemergence; format: in vivo, Kochia scoparia
In short: as §1

pigweed = test: Test D postemergence; format: in vivo, Amaranthus retroflexus
In short: as §1

chickweed = test: Test D postemergence; format: in vivo, Stellaria media
In short: as §1

spring wheat [3] = test: Test D preemergence; format: in vivo, Triticum aestivum
In short: as §1

winter wheat [4] = test: Test D preemergence; format: in vivo, Triticum aestivum
In short: as §1

[5] = 62 g ai/ha, scale 0 to 100 (0 no effect, 100 complete control)
[6] = 125 g ai/ha, scale 0 to 100 (0 no effect, 100 complete control)
[7] = 250 g ai/ha, scale 0 to 100 (0 no effect, 100 complete control)
[8] = 31 g ai/ha, scale 0 (no effect) to 100 (complete control)

## FC(F)(F)c1cn(-c2ccccc2Oc2ncc(Cl)cn2)nn1 [Compound 166, 5-chloro-2-[2-[4-(trifluoromethyl)-1H-1,2,3-triazol-1-yl]phenoxy]pyrimidine]
Spring wheat [1]; Triticum aestivum, post-emergence, 16 g ai/ha, scale 0-100, read-out: Plant response rating, Wheat, Spring
  plant injury at 16 g/ha: 5%
Spring wheat [1]; Triticum aestivum, post-emergence, 31 g ai/ha, scale 0 to 100 (0 no effect, 100 complete control), read-out: Plant response rating, Wheat, Spring
  plant injury at 31 g/ha: 10%
Spring wheat [1]; Triticum aestivum, post-emergence, 62 g ai/ha, scale 0 to 100 (0 no effect, 100 complete control), read-out: Plant response rating, Wheat, Spring
  plant injury at 62 g/ha: 25%
Spring wheat [1]; Triticum aestivum, post-emergence, 125 g ai/ha, scale 0 to 100 (0 no effect, 100 complete control), read-out: Plant response rating, Wheat, Spring
  plant injury at 125 g/ha: 35%
Winter wheat [2]; Triticum aestivum, post-emergence, 16 g ai/ha, scale 0-100, read-out: Plant response rating, Wheat, Winter
  plant injury at 16 g/ha: 5%
Winter wheat [2]; Triticum aestivum, post-emergence, 31 g ai/ha, scale 0 to 100 (0 no effect, 100 complete control), read-out: Plant response rating, Wheat, Winter
  plant injury at 31 g/ha: 15%
Winter wheat [2]; Triticum aestivum, post-emergence, 62 g ai/ha, scale 0 to 100 (0 no effect, 100 complete control), read-out: Plant response rating, Wheat, Winter
  plant injury at 62 g/ha: 30%
Winter wheat [2]; Triticum aestivum, post-emergence, 125 g ai/ha, scale 0 to 100 (0 no effect, 100 complete control), read-out: Plant response rating, Wheat, Winter
  plant injury at 125 g/ha: 40%
Italian ryegrass; Lolium multiflorum, pre-emergence, 16 g ai/ha, scale 0 (no effect) to 100 (complete control), read-out: Plant response rating, Ryegrass, Italian
  pest or weed control at 16 g/ha: 20%
Italian ryegrass; Lolium multiflorum, pre-emergence, 31 g ai/ha, scale 0 (no effect) to 100 (complete control), read-out: Plant response rating, Ryegrass, Italian
  pest or weed control at 31 g/ha: 40%
Italian ryegrass; Lolium multiflorum, pre-emergence, 62 g ai/ha, scale 0-100, read-out: Plant response rating, Ryegrass, Italian
  pest or weed control at 62 g/ha: 60%
Italian ryegrass; Lolium multiflorum, pre-emergence, 125 g ai/ha, scale 0-100, read-out: Plant response rating, Ryegrass, Italian
  pest or weed control at 125 g/ha: 85%
kochia; Bassia scoparia, pre-emergence, 16 g ai/ha, scale 0 (no effect) to 100 (complete control), read-out: Plant response rating, Kochia
  pest or weed control at 16 g/ha: 35%
kochia; Bassia scoparia, pre-emergence, 31 g ai/ha, scale 0-100, read-out: Plant response rating, Kochia
  pest or weed control at 31 g/ha: 65%
kochia; Bassia scoparia, pre-emergence, 62 g ai/ha, scale 0-100, read-out: Plant response rating, Kochia
  pest or weed control at 62 g/ha: 95%
kochia; Bassia scoparia, pre-emergence, 125 g ai/ha, scale 0-100, read-out: Plant response rating, Kochia
  pest or weed control at 125 g/ha: 100%
pigweed; Amaranthus retroflexus, post-emergence, 16 g ai/ha, scale 0-100, read-out: Plant response rating, Pigweed
  pest or weed control at 16 g/ha: 80%
pigweed; Amaranthus retroflexus, post-emergence, 31 g ai/ha, scale 0 to 100 (0 no effect, 100 complete control), read-out: Plant response rating, Pigweed
  pest or weed control at 31 g/ha: 85%
pigweed; Amaranthus retroflexus, post-emergence, 62 g ai/ha, scale 0 to 100 (0 no effect, 100 complete control), read-out: Plant response rating, Pigweed
  pest or weed control at 62 g/ha: 95%
pigweed; Amaranthus retroflexus, post-emergence, 125 g ai/ha, scale 0 to 100 (0 no effect, 100 complete control), read-out: Plant response rating, Pigweed
  pest or weed control at 125 g/ha: 95%
chickweed; Stellaria media, post-emergence, 16 g ai/ha, scale 0-100, read-out: Plant response rating, Chickweed
  pest or weed control at 16 g/ha: 55%
chickweed; Stellaria media, post-emergence, 31 g ai/ha, scale 0 to 100 (0 no effect, 100 complete control), read-out: Plant response rating, Chickweed
  pest or weed control at 31 g/ha: 65%
chickweed; Stellaria media, post-emergence, 62 g ai/ha, scale 0 to 100 (0 no effect, 100 complete control), read-out: Plant response rating, Chickweed
  pest or weed control at 62 g/ha: 80%
chickweed; Stellaria media, post-emergence, 125 g ai/ha, scale 0 to 100 (0 no effect, 100 complete control), read-out: Plant response rating, Chickweed
  pest or weed control at 125 g/ha: 90%
Spring wheat [3]; Triticum aestivum, pre-emergence, 16 g ai/ha, scale 0 (no effect) to 100 (complete control), read-out: Plant response rating, Wheat, Spring
  plant injury at 16 g/ha: 0%
Spring wheat [3]; Triticum aestivum, pre-emergence, 31 g ai/ha, scale 0 (no effect) to 100 (complete control), read-out: Plant response rating, Wheat, Spring
  plant injury at 31 g/ha: 0%
Spring wheat [3]; Triticum aestivum, pre-emergence, 62 g ai/ha, scale 0-100, read-out: Plant response rating, Wheat, Spring
  plant injury at 62 g/ha: 10%
Spring wheat [3]; Triticum aestivum, pre-emergence, 125 g ai/ha, scale 0-100, read-out: Plant response rating, Wheat, Spring
  plant injury at 125 g/ha: 60%
Winter wheat [4]; Triticum aestivum, pre-emergence, 16 g ai/ha, scale 0 (no effect) to 100 (complete control), read-out: Plant response rating, Wheat, Winter
  plant injury at 16 g/ha: 0%
Winter wheat [4]; Triticum aestivum, pre-emergence, 31 g ai/ha, scale 0 (no effect) to 100 (complete control), read-out: Plant response rating, Wheat, Winter
  plant injury at 31 g/ha: 0%
Winter wheat [4]; Triticum aestivum, pre-emergence, 62 g ai/ha, scale 0-100, read-out: Plant response rating, Wheat, Winter
  plant injury at 62 g/ha: 0%
Winter wheat [4]; Triticum aestivum, pre-emergence, 125 g ai/ha, scale 0-100, read-out: Plant response rating, Wheat, Winter
  plant injury at 125 g/ha: 25%

## N#Cc1cccc(Oc2ncc(Cl)cn2)c1-n1cc(-n2ccc(C(F)(F)F)n2)cn1 [Compound 284]
Spring wheat [1]; 31 g ai/ha, scale 0-100
  Plant response rating, Wheat, Spring: 15
Spring wheat [1]; [5]
  Plant response rating, Wheat, Spring: 25
Spring wheat [1]; [6]
  Plant response rating, Wheat, Spring: 30
Spring wheat [1]; [7]
  Plant response rating, Wheat, Spring: 35
Winter wheat [2]; 31 g ai/ha, scale 0-100
  Plant response rating, Wheat, Winter: 10
Winter wheat [2]; [5]
  Plant response rating, Wheat, Winter: 25
Winter wheat [2]; [6]
  Plant response rating, Wheat, Winter: 20
Winter wheat [2]; [7]
  Plant response rating, Wheat, Winter: 25
Italian ryegrass; [8]
  Plant response rating, Ryegrass, Italian: 0
Italian ryegrass; 125 g ai/ha, scale 0-100
  Plant response rating, Ryegrass, Italian: 0
Italian ryegrass; 250 g ai/ha, scale 0-100
  Plant response rating, Ryegrass, Italian: 30
kochia; [8]
  Plant response rating, Kochia: 0
kochia; 62 g ai/ha, scale 0-100
  Plant response rating, Kochia: 20
kochia; 125 g ai/ha, scale 0-100
  Plant response rating, Kochia: 100
kochia; 250 g ai/ha, scale 0-100
  Plant response rating, Kochia: 95
pigweed; 31 g ai/ha, scale 0-100
  Plant response rating, Pigweed: 100
pigweed; [5]
  Plant response rating, Pigweed: 100
pigweed; [6]
  Plant response rating, Pigweed: 100
pigweed; [7]
  Plant response rating, Pigweed: 100
chickweed; 31 g ai/ha, scale 0-100
  Plant response rating, Chickweed: 80
chickweed; [5]
  Plant response rating, Chickweed: 85
chickweed; [6]
  Plant response rating, Chickweed: 90
chickweed; [7]
  Plant response rating, Chickweed: 100
Spring wheat [3]; [8]
  Plant response rating, Wheat, Spring: 10
Spring wheat [3]; 125 g ai/ha, scale 0-100
  Plant response rating, Wheat, Spring: 20
Spring wheat [3]; 250 g ai/ha, scale 0-100
  Plant response rating, Wheat, Spring: 30
Winter wheat [4]; [8]
  Plant response rating, Wheat, Winter: 15
Winter wheat [4]; 125 g ai/ha, scale 0-100
  Plant response rating, Wheat, Winter: 20
Winter wheat [4]; 250 g ai/ha, scale 0-100
  Plant response rating, Wheat, Winter: 25
